Measurements: article PMC7129073 (Clinical Microbiology and Infection, 2015)
Values after ≈ are worked out from the molar mass of the structure shown.

Columns and labels:
S. pyogenes = experiment: Sensitivity of CAP pathogens with/without antibiotic pretreatment; format: cell-based, Streptococcus pyogenes; conditions: Abs. 4
[1] = test system: Moraxella catarrhalis (MC); experiment: MIC; format: cell-based; conditions: 2497 isolates
[2] = test system: pathogens in community acquired pneumonia of different severity; experiment: Sensitivity of CAP pathogens by Fine severity group; format: cell-based
ERSP = experiment: Broth microdilution; format: cell-based, Streptococcus pneumoniae
Other Enterobacteriacae = experiment: Sensitivity of CAP pathogens with/without antibiotic pretreatment; format: cell-based, Enterobacteriaceae
S. pneumoniae [3] = experiment: Broth microdilution; format: cell-based, Streptococcus pneumoniae
[4] = test system: Other non-fermenting bacteria; experiment: Sensitivity of CAP pathogens with/without antibiotic pretreatment; format: cell-based
N.gonorrhoeae = experiment: microbe, parasite or virus in culture; format: cell-based; conditions: Neisseria gonorrhoeae
Other Haemophilus sp. = experiment: Sensitivity of CAP pathogens with/without antibiotic pretreatment; format: cell-based; conditions: after pretreatment, Abs. 11
H. influenzae = experiment: as above; format: cell-based, Haemophilus influenzae
[5] = test system: Streptococcus pyogenes (SPY); experiment: MIC; format: cell-based; conditions: 2522 isolates
P. jirovecii = P. jirovecii colonisation; format: in vivo, human; conditions: none developed PcP in one year
Staph. coaq (−) = experiment: Sensitivity of CAP pathogens with/without antibiotic pretreatment; format: cell-based, coagulase-negative Staphylococcus
Kl. pneumoniae = experiment: as above; format: cell-based, Klebsiella pneumoniae
H.influenzae = experiment: Broth microdilution; format: cell-based, Haemophilus influenzae
E. coli = experiment: Sensitivity of CAP pathogens with/without antibiotic pretreatment; format: cell-based, Escherichia coli
P. aeruginosa = experiment: as above; format: cell-based, Pseudomonas aeruginosa; conditions: Abs. 3
PRSP = experiment: Broth microdilution; format: cell-based, Streptococcus pneumoniae
Enterococcus sp = experiment: Sensitivity of CAP pathogens with/without antibiotic pretreatment; format: cell-based
S. pneumoniae [6] = experiment: E-test MIC, children with URTI, Brazil; format: cell-based, Streptococcus pneumoniae
[7] = test system: Total pathogens in community acquired pneumonia; experiment: Sensitivity of CAP pathogens with/without antibiotic pretreatment; format: cell-based; conditions: after pretreatment, Abs. 48
S. aureus = experiment: as above; format: cell-based, Staphylococcus aureus; conditions: after pretreatment, Abs. 4
S. -pneumoniae = experiment: as above; format: cell-based, Streptococcus pneumoniae
[8] = NCCLS breakpoints (Amox/Clav 2/1 mcg/mL)

SMILES: CC[C@H]1OC(=O)[C@H](C)[C@@H](O[C@H]2C[C@@](C)(OC)[C@@H](O)[C@H](C)O2)[C@H](C)[C@@H](O[C@@H]2O[C@H](C)C[C@H](N(C)C)[C@H]2O)[C@](C)(O)C[C@@H](C)CN(C)[C@H](C)[C@@H](O)[C@]1(C)O [azithromycin]
- % of sensitive strains (S. pyogenes; after pretreatment): 100.0%
- % of sensitive strains (S. pyogenes; without pretreatment): 100,0%
- MIC90 [1]: 0.25 ig/ml
- sensitivity, total strains ([2]; higher severity group (Fine scores >70)): 60.0%
- sensitivity, total strains ([2]; lower severity group (Fine scores <70)): 73.6%
- %Sus (ERSP; [8]): 0.3%
- MIC90 (ERSP; Streptococcus pneumoniae): > 32 µg/mL
- % of sensitive strains (Other Enterobacteriacae; after pretreatment, Abs. 5): 0.0%
- % of sensitive strains (Other Enterobacteriacae; without pretreatment, Abs. 2): 0,0%
- %Sus (S. pneumoniae [3]; [8]): 71.4%
- MIC90 (S. pneumoniae [3]; Streptococcus pneumoniae): > 32 µg/mL
- % of sensitive strains ([4]; after pretreatment, Abs. 0): 0.0%
- % of sensitive strains ([4]; without pretreatment, Abs. 1): 0,0%
- MIC (N.gonorrhoeae; strain 76mu6): 0.25 µg/mL (≈ 0.334 µM)
- MIC (N.gonorrhoeae; strain 76mu10): 0.25 µg/mL (≈ 0.334 µM)
- % of sensitive strains (Other Haemophilus sp.): 100.0%
- % of sensitive strains (H. influenzae; after pretreatment, Abs. 10): 100.0%
- % of sensitive strains (H. influenzae; without pretreatment, Abs. 26): 100.0%
- MIC90 [5]: 0.5 ig/ml
- patients receiving prophylaxis who were colonized (P. jirovecii): 17.2%
- % of sensitive strains (Staph. coaq (−); after pretreatment, Abs. 2): 50.0%
- % of sensitive strains (Staph. coaq (−); without pretreatment, Abs. 4): 75.0%
- % of sensitive strains (Kl. pneumoniae; after pretreatment, Abs. 5): 0.0%
- % of sensitive strains (Kl. pneumoniae; without pretreatment, Abs. 4): 0,0%
- MIC90 (H.influenzae; Haemophilus influenzae): 2 µg/mL (≈ 2.67 µM)
- %Sus (H.influenzae; NCCLS): 99.1%
- % of sensitive strains (E. coli; after pretreatment, Abs. 1): 0.0%
- % of sensitive strains (E. coli; without pretreatment, Abs. 5): 0,0%
- % of sensitive strains (P. aeruginosa; after pretreatment): 0.0%
- % of sensitive strains (P. aeruginosa; without pretreatment): 0,0%
- %Sus (PRSP; [8]): 23.0%
- MIC90 (PRSP; Streptococcus pneumoniae, PRSP): > 32 µg/mL
- % of sensitive strains (Enterococcus sp; after pretreatment, Abs. 0): 0.0%
- % of sensitive strains (Enterococcus sp; without pretreatment, Abs. 1): 0,0%
- intermediate (I) (S. pneumoniae [6]; 137 isolates): 1.5%
- resistant (R) (S. pneumoniae [6]; 137 isolates): 8%
- susceptible (S) (S. pneumoniae [6]; 137 isolates): 90.5%
- MIC90 (S. pneumoniae [6]; Streptococcus pneumoniae): 4 µg/mL (≈ 5.34 µM)
- % of sensitive strains [7]: 66.7%
- % of sensitive strains (S. aureus): 75.0%
- % of sensitive strains (S. -pneumoniae; after antibiotic pretreatment, Abs. 3): 100.0%
- % of sensitive strains (S. -pneumoniae; without antibiotic pretreatment, Abs. 13): 100,0%
